Results as given in PubChem BioAssay (NCI).
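Five concentrations, 48 hours, 96-well plates. Abbreviation: GI50, concentration required for 50% inhibition of growth. TGI denotes the concentration required for complete inhibition of growth.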

Experiments:
Experiment in all cases: DTP human tumour cell line panel, 48 h
A498 renal = tested on: A498 renal
HCC-2998 colon = tested on: HCC-2998 colon
LOX IMVI melanoma = tested on: LOX IMVI melanoma
NCI-H460 lung = tested on: NCI-H460 lung
RXF 393 renal = tested on: RXF 393 renal
SK-MEL-28 melanoma = tested on: SK-MEL-28 melanoma
SK-MEL-5 melanoma = tested on: SK-MEL-5 melanoma
SN12C renal = tested on: SN12C renal
UACC-257 melanoma = tested on: UACC-257 melanoma
UO-31 renal = tested on: UO-31 renal

SMILES	GI50 (A498 renal)	TGI (A498 renal)	GI50 (HCC-2998 colon)	TGI (HCC-2998 colon)	GI50 (LOX IMVI melanoma)	TGI (LOX IMVI melanoma)	GI50 (NCI-H460 lung)	TGI (NCI-H460 lung)	GI50 (RXF 393 renal)	TGI (RXF 393 renal)	GI50 (SK-MEL-28 melanoma)	TGI (SK-MEL-28 melanoma)	GI50 (SK-MEL-5 melanoma)	TGI (SK-MEL-5 melanoma)	GI50 (SN12C renal)	TGI (SN12C renal)	GI50 (UACC-257 melanoma)	TGI (UACC-257 melanoma)	GI50 (UO-31 renal)	TGI (UO-31 renal)
CCCC[C@@H]1NC(=O)[C@H](CCCCN)NC(=O)[C@H](CCCNC(=N)N)NC(=O)[C@H](CC(C)C)NC(=O)[C@@H](NC(=O)[C@H](Cc2cccc(Cl)c2)NC(=O)[C@@H]2CCCN2C(=O)[C@@H](NC(C)=O)C(C)C)CCSSC[C@@H](C(=O)N[C@@H](CCCCN)C(=O)N2CCC[C@H]2C(=O)N2CCC[C@H]2C(=O)N[C@@H](CCC(=O)O)C(N)=O)NC(=O)[C@H](Cc2ccccc2)NC(=O)[C@H](CO)NC(=O)[C@H](C)NC(=O)[C@@H]2CCCN2C1=O	> 50 µM	> 50 µM	> 50 µM	> 50 µM	> 50 µM	> 50 µM	> 50 µM	> 50 µM	> 50 µM	> 50 µM	> 50 µM	> 50 µM	> 50 µM	> 50 µM	> 50 µM	> 50 µM	> 50 µM	> 50 µM	> 50 µM	> 50 µM
O=C(/C=C/c1ccc(OCCCCCCCCCCOc2ccc(/C=C/C(=O)c3ccc(Cl)cc3)cc2)cc1)c1ccc(Cl)cc1	–	> 100 µM	–	> 100 µM	–	> 100 µM	–	> 100 µM	–	> 100 µM	–	> 100 µM	–	> 100 µM	–	> 100 µM	–	> 100 µM	–	> 100 µM
CS(=O)(=O)C1S(=O)(=O)OCCOS1(=O)=O	–	> 100 µM	–	> 100 µM	–	> 100 µM	–	> 100 µM	–	> 100 µM	–	> 100 µM	–	> 100 µM	–	> 100 µM	–	> 100 µM	–	> 100 µM
O=[N+]([O-])c1ccccc1S(=O)c1ccccc1 (centres undefined)	–	> 100 µM	–	> 100 µM	–	> 100 µM	–	> 100 µM	–	> 100 µM	–	> 100 µM	–	> 100 µM	–	> 100 µM	–	> 100 µM	–	> 100 µM
O=C(Cn1ccnc1[N+](=O)[O-])N(CCO)CCO	> 250 µM	> 1250 µM	–	> 250 µM	> 250 µM	> 1250 µM	> 250 µM	> 1250 µM	> 1250 µM	> 1250 µM	> 1250 µM	> 1250 µM	> 1250 µM	> 1250 µM	> 1250 µM	> 1250 µM	> 1250 µM	> 1250 µM	> 1250 µM	> 1250 µM
O=CC1=CCCC2(C1)OCCO2	–	> 100 µM	–	> 100 µM	–	> 100 µM	–	> 100 µM	–	> 100 µM	–	> 100 µM	–	> 100 µM	–	> 100 µM	–	> 100 µM	–	> 100 µM
Cc1ccc(S(=O)(=O)N(C)C)cc1[N+](=O)[O-]	> 100 µM	> 100 µM	> 100 µM	> 100 µM	> 100 µM	> 100 µM	> 100 µM	> 100 µM	> 100 µM	> 100 µM	> 100 µM	> 100 µM	> 100 µM	> 100 µM	> 100 µM	> 100 µM	> 100 µM	> 100 µM	21.5 µM	> 100 µM
Cn1ncc2c(Nc3ccc(Br)cc3)nc(Nc3ccc(Br)cc3)nc21	2.68 µM	9.9 µM	1.94 µM	3.98 µM	1.77 µM	3.36 µM	2.23 µM	5.23 µM	2.81 µM	7.57 µM	5.09 µM	17 µM	2.2 µM	7.52 µM	3.28 µM	12.9 µM	5.32 µM	18.8 µM	3.28 µM	29 µM
CCOc1ccc(NC(=O)Nc2cc(C(C)C)ccc2C)cc1	3.65 µM	18.6 µM	11 µM	> 92.2 µM	8.9 µM	> 100 µM	9.22 µM	> 100 µM	1.64 µM	4.9 µM	8.32 µM	41.8 µM	> 51.9 µM	> 100 µM	5.15 µM	24 µM	8.83 µM	44.9 µM	4.82 µM	16.9 µM
